This note sets out measurements from PubChem BioAssay AID198 (DTP/NCI, 2004).

The assay deals with B16 melanoma ip, C57BL/6 mice, median survival T/C. Description: NCI In Vivo Anticancer Drug Screen. Data for tumor model B16 Melanoma (intraperitoneal) in C57BL/6 mice. The settings on record: endpoint: median survival time, higher = longer survival. How it is done:
The antitumor activity of compounds was measured in mice bearing transplantable tumors. Survival or tumor size were measured and the results are expressed as the measurement made in the treated group (T) divided by the measurement made in the vehicle treated control group (C). The tumor model used in this assay is B16 Melanoma (intraperitoneal) in C57BL/6 mice

[1] abbreviates: dose: 1.25 mg/kg/injection, schedule: Q01DX009 (ip), vehicle: saline.
Setting [2] is: dose: 2.5 mg/kg/injection, schedule: Q01DX009 (ip), vehicle: saline.
Where [3] appears, read: dose: 5.0 mg/kg/injection, schedule: Q01DX009 (ip), vehicle: saline.
The mark [4] stands for this setting: dose: 10.0 mg/kg/injection, schedule: Q01DX009 (ip), vehicle: saline.
[5] abbreviates: dose: 75.0 mg/kg/injection, schedule: Q01DX009 (ip), vehicle: saline.
Setting [6] is: dose: 150.0 mg/kg/injection, schedule: Q01DX009 (ip), vehicle: saline.
The mark [7] stands for this setting: dose: 300.0 mg/kg/injection, schedule: Q01DX009 (ip), vehicle: saline.
Where [8] appears, read: dose: 25.0 mg/kg/injection, schedule: Q01DX009 (ip), vehicle: saline.
The mark [9] stands for this setting: dose: 50.0 mg/kg/injection, schedule: Q01DX009 (ip), vehicle: saline.
[10] abbreviates: dose: 100.0 mg/kg/injection, schedule: Q01DX009 (ip), vehicle: saline.
Setting [11] is: dose: 200.0 mg/kg/injection, schedule: Q01DX009 (ip), vehicle: saline.
The mark [12] stands for this setting: dose: 6.25 mg/kg/injection, schedule: Q01DX009 (ip), vehicle: saline.
Setting [13] is: dose: 12.5 mg/kg/injection, schedule: Q01DX009 (ip), vehicle: saline.
Where [14] appears, read: dose: 3.13 mg/kg/injection, schedule: Q01DX009 (ip), vehicle: saline.
The mark [15] stands for this setting: dose: 0.25 mg/kg/injection, schedule: Q01DX009 (ip), vehicle: saline.
[16] abbreviates: dose: 0.5 mg/kg/injection, schedule: Q01DX009 (ip), vehicle: saline.
Where [17] appears, read: dose: 1.0 mg/kg/injection, schedule: Q01DX009 (ip), vehicle: saline.
Where [18] appears, read: dose: 125.0 mg/kg/injection, schedule: Q01DX009 (ip), vehicle: saline.
Setting [19] is: dose: 100.0 mg/kg/injection, schedule: Q01DX009 (ip), vehicle: saline with Tween-80.
[20] abbreviates: dose: 200.0 mg/kg/injection, schedule: Q01DX009 (ip), vehicle: saline with Tween-80.

Values joined by “and” are separate entries in the source; they are usually repeats but may differ in a detail not shown here. Equal entries are not always repeated. Toxic doses and inconclusive results are not listed.

`CN[C@H]1CCc2cc(OC)c(OC)c(OC)c2-c2ccc(OC)c(=O)cc21`: the T/C by setting is: under setting [1], 100 % of control; (dose: 1.3 mg/kg/injection, schedule: Q01DX009 (ip), vehicle: saline) 100 % of control; under setting [2], 100 % of control and 103 % of control; under setting [3], 93 % of control and 113 % of control; under setting [4], 93 % of control.
In the case of `O=NN(CCF)C(=O)NC1CCS(=O)(=O)CC1`, the T/C is, setting by setting: (dose: 7.5 mg/kg/injection, schedule: Q01DX001 (ip), vehicle: saline) 212 % of control; (dose: 15.0 mg/kg/injection, schedule: Q01DX001 (ip), vehicle: saline) 200 % of control; (dose: 30.0 mg/kg/injection, schedule: Q01DX001 (ip), vehicle: saline) 175 % of control.
In the case of `CN(C)c1nc(N(C)C)nc(N(C)C)n1`, the T/C by setting is: (dose: 37.5 mg/kg/injection, schedule: Q01DX009 (ip), vehicle: saline) 100 % of control; under setting [5], 103 % of control; under setting [6], 103 % of control; under setting [7], 103 % of control.
`COc1cc(C[C@H]2c3cc(OC)c(OC)cc3CCN2C)c(Oc2cc3c(cc2OC)-c2c(OC)c(OC)cc4c2[C@H](C3)N(C)CC4)cc1OC`: the T/C is, setting by setting: under setting [8], 96 % of control; under setting [9], 96 % of control; under setting [10], 92 % of control.
As to `CO[C@H]1/C=C/O[C@@]2(C)Oc3c(C)c(O)c4c(O)c(c(/C=N/N5CCN(C)CC5)c(O)c4c3C2=O)NC(=O)/C(C)=C\C=C\[C@H](C)[C@H](O)[C@@H](C)[C@@H](O)[C@@H](C)[C@H](OC(C)=O)[C@@H]1C`, the T/C reads like this: under setting [9], 106 % of control; under setting [10], 109 % of control; under setting [11], 112 % of control.
Consider `CN(C)CC(=O)c1ccc(O)c(O)c1`, for which the T/C by setting is: under setting [5], 112 % of control; under setting [6], 109 % of control; under setting [7], 115 % of control; (dose: 600.0 mg/kg/injection, schedule: Q01DX009 (ip), vehicle: saline) 121 % of control.
Consider `CS(=O)(=O)OCCCCOS(C)(=O)=O`, for which the T/C by setting is: (dose: 3.12 mg/kg/injection, schedule: Q01DX009 (ip), vehicle: saline) 103 % of control; under setting [12], 96 % of control; under setting [13], 106 % of control; under setting [8], 103 % of control.
In the case of `O=C(O)c1[nH]c(=O)[nH]c(=O)c1F`, the T/C under setting [1] was 100 % of control; the T/C under setting [2] was 106 % of control and 110 % of control; the T/C under setting [3] is 100 % of control and 103 % of control; the T/C under setting [4] was 87 % of control and 89 % of control.
Consider `O=C(O)CCCc1ccc(N(CCCl)CCCl)cc1`, for which the T/C is 96 % of control and 103 % of control under setting [14]; 100 % of control and 114 % of control under setting [12]; 106 % of control and 112 % of control under setting [13]; 86 % of control under setting [8].
For the compound `COc1c(C)c2c(c(O)c1C/C=C(\C)CCC(=O)O)C(=O)OC2`, the T/C is 106 % of control under setting [8], 113 % of control under setting [9], 110 % of control under setting [10] and 106 % of control under setting [11].
Take `COc1cc(/C=N\O)nc(-c2ccccn2)c1`: the T/C by setting is: under setting [8], 100 % of control; under setting [9], 106 % of control; under setting [10], 93 % of control.
In the case of `Nc1ccc(Cl)cc1N`, the T/C is, setting by setting: (dose: 12.5 mg/kg/injection, schedule: Q01DX009 (ip), vehicle: other) 106 % of control; (dose: 25.0 mg/kg/injection, schedule: Q01DX009 (ip), vehicle: other) 100 % of control; (dose: 50.0 mg/kg/injection, schedule: Q01DX009 (ip), vehicle: other) 100 % of control; (dose: 100.0 mg/kg/injection, schedule: Q01DX009 (ip), vehicle: other) 90 % of control.
Take `CO[C@H](C(=O)[C@@H](O)[C@@H](C)O)[C@@H]1Cc2cc3cc(OC4CC(OC5CC(O)C(O)C(C)O5)C(O)C(C)O4)c(C)c(O)c3c(O)c2C(=O)[C@H]1OC1CC(OC2CC(OC3CC(C)(O)C(O)C(C)O3)C(O)C(C)O2)C(O)C(C)O1` (some centres not stated): the T/C is, setting by setting: under setting [15], 106 % of control; under setting [16], 100 % of control; under setting [17], 113 % of control.
Consider `O=NN(CCCl)C(=O)Nc1ccc(CCCl)cc1`, for which the T/C runs as follows: under setting [14], 267 % of control; under setting [12], 217 % of control.
In the case of `CN(C)CCCN1c2ccccc2Sc2ccc(Cl)cc21`, the T/C runs as follows: under setting [14], 100 % of control and 97 % of control; under setting [12], 100 % of control and 102 % of control; under setting [13], 111 % of control and 105 % of control; under setting [8], 100 % of control and 108 % of control.
`CCOC(N)=O`: the T/C under setting [18] is 100 % of control; the T/C (dose: 250.0 mg/kg/injection, schedule: Q01DX009 (ip), vehicle: saline) is 107 % of control; the T/C (dose: 500.0 mg/kg/injection, schedule: Q01DX009 (ip), vehicle: saline) was 100 % of control.
Take `Nc1nc(CCl)nc(Nc2ccccc2)n1`: the T/C was 96 % of control under setting [19] and 100 % of control under setting [20].
Turning to `c1ccc2sc(SSN3CC4CCC(CC4)C3)nc2c1`, the T/C was 100 % of control (dose: 12.5 mg/kg/injection, schedule: Q01DX009 (ip), vehicle: saline with Tween-80); 94 % of control (dose: 25.0 mg/kg/injection, schedule: Q01DX009 (ip), vehicle: saline with Tween-80); 94 % of control (dose: 50.0 mg/kg/injection, schedule: Q01DX009 (ip), vehicle: saline with Tween-80); 89 % of control under setting [19]; 88 % of control under setting [20].
Regarding `Nc1ncnc2c1ccn2C1OC(CO)C(O)C1O` (configuration not stated), the T/C reads like this: (dose: 0.32 mg/kg/injection, schedule: Q01DX009 (ip), vehicle: saline) 93 % of control; (dose: 0.63 mg/kg/injection, schedule: Q01DX009 (ip), vehicle: saline) 96 % of control; under setting [1], 100 % of control.
On to `CC1=C2C(=C[C@@](C)(CO)[C@@H]2O)C(=O)[C@](C)(O)C12CC2`, for which the T/C was 113 % of control (dose: 0.1 mg/kg/injection, schedule: Q01DX009 (ip), vehicle: saline) and 113 % of control (dose: 0.2 mg/kg/injection, schedule: Q01DX009 (ip), vehicle: saline).
On to `COc1cccc2c1C(=O)c1c(O)c3c(c(O)c1C2=O)C[C@@](O)(C(C)=O)C[C@@H]3OC1CC(N)C(O)C(C)O1` (some centres not stated), for which the T/C reads like this: under setting [15], 177 % of control; under setting [16], 188 % of control; under setting [17], 277 % of control; (dose: 2.0 mg/kg/injection, schedule: Q01DX009 (ip), vehicle: saline) 186 % of control.
Regarding `CC[C@H]1CN2CCc3cc(OC)c(OC)cc3[C@@H]2C[C@@H]1C[C@H]1NCCc2cc(OC)c(OC)cc21`, the T/C reads like this: (dose: 1.0 mg/kg/injection, schedule: Q03DX005 (ip), vehicle: saline) 106 % of control; (dose: 2.0 mg/kg/injection, schedule: Q03DX005 (ip), vehicle: saline) 109 % of control; (dose: 16.0 mg/kg/injection, schedule: Q03DX005 (ip), vehicle: saline) 87 % of control.
Turning to `CC(CN1CC(=O)NC(=O)C1)N1CC(=O)NC(=O)C1` (configuration not stated), the T/C by setting is: (dose: 15.0 mg/kg/injection, schedule: Q01DX009 (ip), vehicle: saline) 109 % of control; (dose: 60.0 mg/kg/injection, schedule: Q01DX009 (ip), vehicle: saline) 90 % of control.
For the compound `O=c1[nH]c(=O)n(C2CC(O)C(CO)O2)cc1F` (configuration not stated), the T/C was 113 % of control under setting [4]; 120 % of control (dose: 20.0 mg/kg/injection, schedule: Q01DX009 (ip), vehicle: saline); 123 % of control (dose: 40.0 mg/kg/injection, schedule: Q01DX009 (ip), vehicle: saline); 154 % of control (dose: 80.0 mg/kg/injection, schedule: Q01DX009 (ip), vehicle: saline); 151 % of control (dose: 160.0 mg/kg/injection, schedule: Q01DX009 (ip), vehicle: saline).
Turning to `CC(C)=CCC/C(C)=C/CO`, the T/C (dose: 15.6 mg/kg/injection, schedule: Q01DX009 (ip), vehicle: saline) was 93 % of control; the T/C (dose: 31.3 mg/kg/injection, schedule: Q01DX009 (ip), vehicle: saline) was 96 % of control; the T/C (dose: 62.5 mg/kg/injection, schedule: Q01DX009 (ip), vehicle: saline) is 86 % of control; the T/C under setting [18] was 86 % of control.
